# Measured values taken from US7629366B2, “Aminoalcohol derivatives” (Fujisawa Pharmaceutical Co., Ltd., priority 2002, dated 2009).
# Tested on: increase in intravesical pressure induced by carbachol in anesthetized dog
# Experiment: Effect on the increase in intravesical pressure induced by carbachol in anesthetized dog
# Type: in vivo
# Settings: 0.032 mg/kg intravenously, 30 minutes before carbachol (1.8 μg/kg); female Beagle dogs under halothane anesthesia
# Description: Effect on the increase in intravesical pressure induced by carbachol in anesthetized dog
# Female Beagle dogs weighing 8.0-15.0 kg were fasted for 24 hours and maintained under halothane anesthesia. A 12F Foley catheter was lubricated with water soluble jelly, inserted into the urethral orifice and advanced approximately 10 cm until the balloon tip was placed well inside the bladder. The balloon was then inflated with 5 ml of room air and catheter slowly withdrawn just part the first resistance that is felt at the bladder neck. Urine was completely drained out through the catheter, and 30 ml of biological saline was infused. The catheter was connected to pressure transducer, and intravesical pressure (IVP) was continuously recorded. The test compound was administered intravenously at 30 minutes before the administration of carbachol (1.8 μg/kg). Percent inhibition of IVP increase by test compound was calculated by dividing IVPa (IVP increase induced by carbachol after test compound administration) by IVPb (IVP increase induced by carbachol just before test compound administration).
row,Compound,Percent inhibition of IVP increase
1,"COc1cc(-c2ccc(C[C@@H](C)NC[C@H](O)c3cccnc3)cc2)ccc1C(=O)O.Cl.Cl [Test Compound (4), 4′-[(2R)-2-[[(2R)-2-Hydroxy-2-(3-pyridyl)ethyl]amino]-propyl]-3-methoxy-1,1′-biphenyl-4-carboxylic acid dihydrochloride]",96%
2,"COc1cc(-c2ccc(C[C@@H](C)NC[C@H](O)c3ccccc3)cc2)ccc1C(=O)O.Cl [Test Compound (1), 4′-[(2R)-2-[[(2R)-2-Phenyl-2-hydroxyethyl]amino]-propyl]-3-methoxy-1,1′-biphenyl-4-carboxylic acid hydrochloride]",93%
3,"Cc1cc(C(=O)O)ccc1-c1ccc(CCNC[C@H](O)c2cccnc2)cc1.Cl.Cl [Test Compound (3), 4′-[2-[[(2R)-2-Hydroxy-2-(3-pyridyl)ethyl]amino]ethyl]-2-methyl-1,1′-biphenyl-4-carboxylic acid dihydrochloride]",86%
4,"Cc1c(C(=O)O)ccc(-c2ccc(CCNC[C@H](O)c3cccc(Cl)c3)cc2)c1C.Cl [Test Compound (2), 4′-[2-[[(2R)-2-(3-Chlorophenyl)-2-hydroxyethyl]amino]-ethyl]-2,3-dimethyl-1,1′-biphenyl-4-carboxylic acid hydrochloride]",91%
